Measurements published in the NIST ThermoML archive (doi:10.1016/j.fluid.2014.10.004).

Assays:
[1] = xn = mol fraction of the nth substance listed; conditions: 101.3 kPa, Liquid, Sing-around technique in a fixed-path interferometer
[2] = refractive index (Na D-line) (dimensionless); xn = mol fraction of the nth substance listed; conditions: 101.3 kPa, Liquid, Standard Abbe refractometry

ClCCCCCl [1,4-dichlorobutane] + C[N+](=O)[O-]
Conditions	refractive index, 298.15 K	refractive index, 308.15 K	refractive index, 318.15 K	speed of sound, 298.15 K [m/s]	speed of sound, 308.15 K [m/s]	speed of sound, 318.15 K [m/s]
[1], x1 = 0.0825	–	–	–	1308.1	1269.3	1230.6
[1], x1 = 0.1759	–	–	–	1298.3	1260	1221.8
[1], x1 = 0.2825	–	–	–	1291.3	1253.5	1215.8
[1], x1 = 0.3815	–	–	–	1287.2	1249.9	1212.7
[1], x1 = 0.4815	–	–	–	1285	1248	1211.2
[1], x1 = 0.5911	–	–	–	1284	1247.3	1210.8
[1], x1 = 0.6898	–	–	–	1283.9	1247.5	1211.3
[1], x1 = 0.8208	–	–	–	1284.6	1248.6	1212.8
[1], x1 = 0.9262	–	–	–	1285.7	1249.9	1214.4
[1], x1 = 1	–	–	–	1286.6	1251	1215.7
[2], x1 = 0.0825	1.38965	1.38514	1.38078	–	–	–
[2], x1 = 0.1759	1.39985	1.39614	1.39174	–	–	–
[2], x1 = 0.2825	1.40987	1.40646	1.40219	–	–	–
[2], x1 = 0.3815	1.41799	1.41451	1.41005	–	–	–
[2], x1 = 0.4815	1.42515	1.42129	1.41679	–	–	–
[2], x1 = 0.5911	1.43204	1.4279	1.42357	–	–	–
[2], x1 = 0.6898	1.43765	1.43335	1.42901	–	–	–
[2], x1 = 0.8208	1.4443	1.43965	1.43512	–	–	–
[2], x1 = 0.9262	1.44906	1.44436	1.43974	–	–	–
[2], x1 = 1	1.45224	1.44756	1.44279	–	–	–

CCCCCl [1-chlorobutane] + C[N+](=O)[O-]
x1 = 1
Conditions	refractive index, 298.15 K	refractive index, 308.15 K	refractive index, 318.15 K	speed of sound, 298.15 K [m/s]	speed of sound, 308.15 K [m/s]	speed of sound, 318.15 K [m/s]
[1]	–	–	–	1119	1078	1037.3
[2]	1.39953	1.39413	1.38851	–	–	–

CCCCCCl [1-chloropentane] + C[N+](=O)[O-]
Conditions	refractive index, 298.15 K	refractive index, 308.15 K	refractive index, 318.15 K	speed of sound, 298.15 K [m/s]	speed of sound, 308.15 K [m/s]	speed of sound, 318.15 K [m/s]
[1], x1 = 0.1043	–	–	–	1276	1237	1197.9
[1], x1 = 0.1721	–	–	–	1253.5	1214.4	1175.3
[1], x1 = 0.2575	–	–	–	1231.2	1192.3	1153.4
[1], x1 = 0.3466	–	–	–	1213.7	1174.8	1135.8
[1], x1 = 0.4525	–	–	–	1198.2	1159.2	1120.1
[1], x1 = 0.5435	–	–	–	1188.6	1149.2	1110.1
[1], x1 = 0.6864	–	–	–	1177.1	1137.8	1098.5
[1], x1 = 0.8325	–	–	–	1169.4	1130.1	1090.8
[1], x1 = 0.8859	–	–	–	1167.6	1128.1	1088.9
[1], x1 = 1	–	–	–	1164.2	1124.9	1085.8
[2], x1 = 0.1044	1.38453	1.37934	1.37439	–	–	–
[2], x1 = 0.1721	1.38722	1.3821	1.377	–	–	–
[2], x1 = 0.2575	1.39056	1.38539	1.38037	–	–	–
[2], x1 = 0.3466	1.39367	1.38858	1.38354	–	–	–
[2], x1 = 0.4525	1.39687	1.39181	1.38674	–	–	–
[2], x1 = 0.5435	1.39934	1.39422	1.38916	–	–	–
[2], x1 = 0.6864	1.40308	1.39792	1.39268	–	–	–
[2], x1 = 0.8325	1.40646	1.4012	1.396	–	–	–
[2], x1 = 0.8859	1.4076	1.40244	1.3972	–	–	–
[2], x1 = 1	1.41015	1.40501	1.39984	–	–	–
